Values belong to the molecule of their own block, whether it stands above or below them.
How the values were obtained:
sEH = conditions: inhibits only very weakly other enzymes that catalyze hydrolysis or conjugation of epoxides; Mullin and Hammock 1982, Prestwich 1985; cited from earlier work
human sEH [1] = molecular target: T1, human sEH (Homo sapiens, UniProt P34913); assay: Human soluble EH activity in lysates of Sf21 cells infected with recombinant AcNPV, TSO and CSO as substrates; format: biochemical; conditions: for inhibition at 62.5 µM: preincubation of lysates from human sEH expressing cells with inhibitor (62.5 μM, Table II), read-out: inhibition of the hydrolysis of TSO and CSO
T1 construct: made in house; host or cells: Spodoptera frugiperda Sf21 cells infected with recombinant AcNPV (AchsEH1)
T1 sequence (P34913 1-555): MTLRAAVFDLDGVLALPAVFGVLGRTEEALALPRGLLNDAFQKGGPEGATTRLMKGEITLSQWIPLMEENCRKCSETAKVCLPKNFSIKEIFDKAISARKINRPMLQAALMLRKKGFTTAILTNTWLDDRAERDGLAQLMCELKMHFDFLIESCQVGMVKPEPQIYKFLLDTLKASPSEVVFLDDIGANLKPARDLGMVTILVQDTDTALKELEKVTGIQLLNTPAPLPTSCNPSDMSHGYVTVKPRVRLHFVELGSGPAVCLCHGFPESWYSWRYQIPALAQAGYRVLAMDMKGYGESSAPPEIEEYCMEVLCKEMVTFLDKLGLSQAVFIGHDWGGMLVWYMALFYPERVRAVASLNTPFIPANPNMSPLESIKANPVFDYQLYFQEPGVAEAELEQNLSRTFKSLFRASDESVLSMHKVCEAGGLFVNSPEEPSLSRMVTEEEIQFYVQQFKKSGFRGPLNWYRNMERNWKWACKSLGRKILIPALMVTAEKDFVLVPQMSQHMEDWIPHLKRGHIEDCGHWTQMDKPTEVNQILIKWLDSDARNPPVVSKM
Description: To obtain recombinant baculovirus, Spodoptera frugiperda 21 (Sf21) insect cells are cotransfected with plasmid pAcUW21-hsEH plus linearized DNA (AcRP6-SC) of Autographa californica nuclear polyhedrosis virus (AcNPV). […] The resulting virus plaque is purified as described by O'Reilly, D. R., et al., in Baculovirus Expresssion Vectors. A Labortory Manual, p. […] Cultures of Sf21 cells are then infected with recombinant AcNPV containing the human sEH sequence or with control AcNPV. Uninfected cultures are also maintained. Cultures are maintained 4 to 5 days post infection before harvesting proteins. For extraction of proteins, cells are washed (three times in 90 mM NaHPO4 pH7.4) then lysed (in 90 mM NaHPO4 pH7.4, 1 mM EDTA, 1 mM phenylmethylsulfonyl fluoride) by 3 cycles of freeze thawing (dry ice ethanol and 37° C. H2 O baths).
A., and B. D. Hammock in Arch. […] Biochem. Biophys.

[2] = system: monkey and murine microsomal EH; conditions: at 2 mM; cited from earlier work
[3] = system: basal sEH activity of COS-7 cells; assay: Basal epoxide hydrolase activity (TSO) in extracts of vector-control or mock transfected COS-7 cells; format: biochemical, monkey
Method: (§1) To detect soluble epoxide hydrolase activity or to monitor its relative purity, one uses the partition assay of Wixtrom, R. N., and B. D. Hammock in Biochemical Pharmacoloyt and Toxicology (Zakim, D., and Vessey, D. A., Eds), Vol. 1, pp. 1-93. Wiley, New York ([…]) with [^3 H]-trans-stilbene oxide ([^3 H]TSO) as substrate, incorporated herein by reference. In brief this assay entails: coincubating the enzyme with radiolabled substrate that is much more soluble in organic than aqueous solutions. Next, the enzyme substrate is extracted with organic solvent such that the substrate partitions into the organic phase but the more polar and water-soluble product (a vicinal diol) partitions to the aqueous phase. An aliquot of the aqueous phase is then analyzed for concentration of product by quantification of radioactivity. The substrate [^3 H]TSO is prepare by the method described by Gill, S. S., et al., in Anal. Biochem., 131:273-282 (1993) incorporated herein by reference.
(§2) cos-7 cells are grown as a monolayer culture in Dulbecco's modified Eagle's medium (ICN) containing 10% fetal calf serum (ICN) plus penicillin G (100 U/ml) and streptomycin sulfate (100 ug/ml). Cell transfections are mediated by lipofectin (Gibco) according to standard protocol. Approximately 1×10^6 cells are transfected in 100 mm dishes with 5 ug of murine sEH-pJ3omega, 5 ug pJ3omega vector control or a mock transfection control containing lipofectin only (60 ul/plate). All transfections except the mock transfection control contain 2.5 ug of the beta-galactosidase plasmid, pSV-beta-Gal (Promega) can be used as an internal positive control. After 36 hours, cells are washed 5 times with PBS and collected by scraping into 1.5 ml centrifuge tubes. The cells are then pelleted (12 k×g, 4° C., 30 seconds), resuspended in 150 ul of lysis buffer (40 mM tris, pH 8.0, 150 mM NaCl, 0.2 mM PMSF, 1 mM EDTA) and lysed by 3 cycles of freezing and thawing. The cells are again centrifuged and the supernatant used for enzyme assays and protein determination. Beta-galactosidase is assayed as described (Sambrook et al., 1989). sEH activity is assayed using TSO as described by the method of Wixtrom, R. N. and B. D. Hammock in Biochemical Pharmacology and Toxicology, (Zakim, D. and Vessey, D. A., ed.) 1:1-93 (1985).
The functional analysis of recombinant murine sEH expressed in COS-7 cells was performed following the methods described above. […] Transfected cells expressed approximately the same level of sEH activity as did mock transfected cells when 1 mM t-ENPG was included in the enzyme assay. […] The differences in specific activity among the experiments in Table I are most likely due to differences in cell density during transfections.
As well as detecting the transiently expressed sEH, the anti-rhesus-sEH antiserum also detected a protein that migrates identically with mouse sEH.

soluble EH = conditions: at 8 uM; cited from earlier work
murine sEH = molecular target: T2, murine sEH (Mus musculus, UniProt P34914); assay: Epoxide hydrolase activity (TSO partition assay) in extracts of COS-7 cells transfected with murine sEH expression vector; format: biochemical; conditions: psEH-pJ3omega transfected COS-7 cells + t-ENPG 1 mM final concentration
T2 construct: A primer pair to amplify the entire coding region is; expressed in transfected cells; host or cells: COS-7
T2 sequence (P34914 1-554): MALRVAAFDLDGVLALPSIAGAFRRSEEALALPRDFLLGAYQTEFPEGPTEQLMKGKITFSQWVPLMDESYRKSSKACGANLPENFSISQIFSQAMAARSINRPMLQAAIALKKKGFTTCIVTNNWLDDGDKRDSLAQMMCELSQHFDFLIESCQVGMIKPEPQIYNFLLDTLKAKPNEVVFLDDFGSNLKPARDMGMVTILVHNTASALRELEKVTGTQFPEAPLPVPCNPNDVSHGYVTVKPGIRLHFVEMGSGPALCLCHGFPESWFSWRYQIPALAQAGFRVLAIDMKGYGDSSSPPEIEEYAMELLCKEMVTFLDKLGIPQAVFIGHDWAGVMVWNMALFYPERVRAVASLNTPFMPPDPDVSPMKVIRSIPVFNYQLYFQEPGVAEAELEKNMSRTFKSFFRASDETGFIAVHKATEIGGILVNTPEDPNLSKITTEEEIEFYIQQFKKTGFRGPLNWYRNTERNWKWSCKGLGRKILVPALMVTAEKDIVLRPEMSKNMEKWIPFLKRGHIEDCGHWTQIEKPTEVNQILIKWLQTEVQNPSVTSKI
Method: as §1
as §2, with “Beta-galactosidase is assayed as described (Sambrook et al., 1989). sEH activity is assayed using TSO as described by the method of Wixtrom, R. N. and B. D. Hammock in Biochemical Pharmacology and Toxicology, (Zakim, D. and Vessey, D. A., ed.) 1:1-93 (1985).” left out

[4] = system: sEH of various species (mouse, rabbit, primate); conditions: Dietze et al. 1991, 1993, read-out: I50; cited from earlier work
human sEH [5] = molecular target: T1, human sEH; assay: Heat lability of expressed human sEH; format: biochemical; conditions: enzyme assay mixture preincubated 15 min at 65° C.
[6] = AchsEH1 infected Sf21 lysate, inhibitor 62.5 μM, ND = no activity detected where 0.65 was distinguishable above background

Molecule: O=[N+]([O-])c1ccc([C@H]2O[C@@H]2CO)cc1 [RRNPG, (2R,3R)-3-(4-nitrophenyl) glycidol]
IC50 [4]: > 690 µM
specific activity remaining with inhibitor, substrate CSO (human sEH [1]; [6]): 19.8 (1.26) nmoles TSO or CSO converted to
inhibition at 62.5 µM (human sEH [1]): 39%

Molecule: O=[N+]([O-])c1ccc([C@@H]2O[C@H]2CO)cc1 [SSNPG, (2S,3S)-3-(4-nitrophenyl) glycidol]
IC50 [4]: 1 to 10 µM
specific activity remaining with inhibitor, substrate TSO (human sEH [1]; [6]): 5.73 (0.56) nmoles TSO or CSO converted to
inhibition at 62.5 µM (human sEH [1]): 73%

More lines, main results first:

inhibition at 62.5 µM (human sEH [1]): 100%
Molecule: O=C(c1ccccc1)C1OC1c1ccc(F)cc1 (centres unmarked) [4FCO, 4-fluorochalcone oxide]
selectivity for sEH (sEH): very selective inhibitor of sEH

Epoxide hydrolase activity (±S.D.) remaining with inhibitor (murine sEH; Experiment 1): 76 ± 20 pmol·min/mg
Epoxide hydrolase activity (±S.D.) remaining with inhibitor (murine sEH; Experiment 2): 109 ± 4 pmol·min/mg
Epoxide hydrolase activity (±S.D.) remaining with inhibitor (murine sEH; Experiment 3): 134 ± 6 pmol·min/mg
Molecule: O=[N+]([O-])c1ccc([C@@H]2O[C@H]2CO)cc1 [t-ENPG, trans2(S),3(S)-epoxy-3-(4-nitrophenyl) glycidol]
inhibition of microsomal EH [2]: ≤ 23%
Epoxide hydrolase activity (±S.D.) remaining with inhibitor ([3]; Experiment 1, mock transfected COS-7 cells + t-ENPG 1 mM): 74 ± 6 pmol·min/mg
Epoxide hydrolase activity (±S.D.) remaining with inhibitor ([3]; Experiment 1, pJ3omega vector control transfected COS-7 cells + t-ENPG 1 mM): 69 ± 6 pmol·min/mg
Epoxide hydrolase activity (±S.D.) remaining with inhibitor ([3]; Experiment 2, mock transfected COS-7 cells + t-ENPG 1 mM): 106 ± 5 pmol·min/mg
Epoxide hydrolase activity (±S.D.) remaining with inhibitor ([3]; Experiment 2, pJ3omega vector control transfected COS-7 cells + t-ENPG 1 mM): 97 ± 4 pmol·min/mg
Epoxide hydrolase activity (±S.D.) remaining with inhibitor ([3]; Experiment 3, mock transfected COS-7 cells + t-ENPG 1 mM): 88 ± 2 pmol·min/mg
Epoxide hydrolase activity (±S.D.) remaining with inhibitor ([3]; Experiment 3, pJ3omega vector control transfected COS-7 cells + t-ENPG 1 mM): 113 ± 8 pmol·min/mg
inhibition of soluble EH (soluble EH): ≥ 50%

inhibition of activity by heat (heat lability) (human sEH [5]): 100%
B1: expressed human sEH: recombinant human soluble epoxide hydrolase (Seq ID No.2) expressed in Sf21 cells (protein)
chain: MTLRGAVFDLDGVLALPAVFGVLGRTEEALALPRGLLNDAFQKGGPEGATTRLMKGEITLSQWIPLMEENCRKCSETAKVCLPKNFSIKEIFDKAISARKINRPMLQAALMLRKKGFTTAILTNTWLDDRAERDGLAQLMCELKMHFDFLIESCQVGMVKPEPQIYKFLLDTLKASPSEVVFLDDIGANLKPARDLGMVTILVQDTDTALKELEKVTGIQLLNTPAPLPTSCNPSDMSHGYVTVKPRVRLHFVELGWPAVCLCHGFPESWYSWRYQIPALAQAGYRVLAMDMKGYGESSAPPEIEEYCMEVLCKEMVTFLDKLGLSQAVFIGHDWGGMLVWYMALFYPERVRAVASLNTPFIPANPNMSPLESIKANPVFDYQLYFQEPGVAEAELEQNLSRTFKSLFRASDESVLSMHKVCEAGGLFVNSPEEPSLSRMVTEEEIQFYVQQFKKSGFRGPLNWYRNMERNWKWACKSLGRKILIPALMVTAEKDFVLVPQMSQHMEDWIPHLKRGHIEDCGHWTQMDKPTEVNQILIKWLDSDARNPPVVSKM

Reference: patent US5445956A, “Recombinant soluble epoxide hydrolase” (The Regents of the University of California, priority 1993, dated 1995)
